Source: ChEMBL document CHEMBL1201862, “PubChem BioAssay data set” (2004)
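Protocol summary: plate cells (96-well), add compound at 5 concentrations, incubate 48 h, interpolate endpoints linearly. GI50: concentration for 50% inhibition of growth.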 Activity calls are given as the source filed them. Cut-off read from the data, not from the text of the source: active = GI50 up to about 1.1 µM and inactive = higher.

How the values were obtained:
Assay in all cases: NCI anticancer screen, dose series, 48 h
UACC-257 = test system: UACC-257
LXFL 529 = test system: LXFL 529
ACHN = test system: ACHN
SNB-78 = test system: SNB-78
SK-OV-3 = test system: SK-OV-3
K562 = test system: K562
HT-29 = test system: HT-29
IGROV-1 = test system: IGROV-1
OVCAR-4 = test system: OVCAR-4
M14 = test system: M14
UACC-62 = test system: UACC-62
U-251 = test system: U-251
SW-620 = test system: SW-620
MOLT-4 = test system: MOLT-4
NCI-H226 = test system: NCI-H226
XF498 = test system: XF498
HOP-62 = test system: HOP-62
SK-MEL-5 = test system: SK-MEL-5
PC-3 = test system: PC-3
MDA-MB-435 = test system: MDA-MB-435

Compound | GI50 (UACC-257) | GI50 (LXFL 529) | GI50 (ACHN) | GI50 (SNB-78) | GI50 (SK-OV-3) | GI50 (K562) | GI50 (HT-29) | GI50 (IGROV-1) | GI50 (OVCAR-4) | GI50 (M14) | GI50 (UACC-62) | GI50 (U-251) | GI50 (SW-620) | GI50 (MOLT-4) | GI50 (NCI-H226) | GI50 (XF498) | GI50 (HOP-62) | GI50 (SK-MEL-5) | GI50 (PC-3) | GI50 (MDA-MB-435)
O=C(CCc1cc(-c2ccco2)n(-c2ccc([N+](=O)[O-])cc2[N+](=O)[O-])n1)Nc1ccccc1 | > 100 µM (inactive) | > 100 µM (inactive) | > 100 µM (inactive) | > 100 µM (inactive) | > 100 µM (inactive) | 45.5 µM (inactive) | > 100 µM (inactive) | > 100 µM (inactive) | > 100 µM (inactive) | > 100 µM (inactive) | > 100 µM (inactive) | > 100 µM (inactive) | > 100 µM (inactive) | 65.8 µM (inactive) | > 100 µM (inactive) | > 100 µM (inactive) | > 100 µM (inactive) | > 100 µM (inactive) | – | –
O=C1OC(c2ccccc2)=N/C1=C/NC(Cc1c[nH]cn1)C(=O)O (configuration not stated) | > 100 µM (inactive) | > 100 µM (inactive) | > 100 µM (inactive) | > 100 µM (inactive) | > 100 µM (inactive) | > 100 µM (inactive) | > 100 µM (inactive) | > 100 µM (inactive) | > 100 µM (inactive) | > 100 µM (inactive) | > 100 µM (inactive) | > 100 µM (inactive) | > 100 µM (inactive) | > 100 µM (inactive) | > 100 µM (inactive) | > 100 µM (inactive) | > 100 µM (inactive) | > 100 µM (inactive) | – | –
CC1=C(O)C(=O)C2C(=O)C1C(C)C2c1ccc(Cl)cc1 (configuration not stated) | – | > 100 µM (inactive) | > 100 µM (inactive) | > 100 µM (inactive) | > 100 µM (inactive) | > 100 µM (inactive) | > 100 µM (inactive) | > 100 µM (inactive) | > 100 µM (inactive) | > 100 µM (inactive) | > 100 µM (inactive) | > 100 µM (inactive) | > 100 µM (inactive) | > 100 µM (inactive) | > 100 µM (inactive) | > 100 µM (inactive) | > 100 µM (inactive) | > 100 µM (inactive) | – | –
CS(=O)(=O)c1nc(Cl)c(Cl)c(C#N)c1Cl | 2.49 µM (inactive) | 1.57 µM (inactive) | 2.6 µM (inactive) | 9.91 µM (inactive) | 6.75 µM (inactive) | 0.859 µM (active) | 1.97 µM (inactive) | 6.59 µM (inactive) | 1.96 µM (inactive) | 1.91 µM (inactive) | 3.31 µM (inactive) | 4.9 µM (inactive) | 1.14 µM (inactive) | 0.838 µM (active) | 13.2 µM (inactive) | 3.09 µM (inactive) | 19.3 µM (inactive) | 5.12 µM (inactive) | 5.35 µM (inactive) | 2.01 µM (inactive)
COc1ccc(/C(Cl)=C(\C=O)c2ccc([N+](=O)[O-])cc2)cc1 | 10.1 µM (inactive) | 3.27 µM (inactive) | 18.5 µM (inactive) | 5.6 µM (inactive) | 33 µM (inactive) | 3.12 µM (inactive) | 4.57 µM (inactive) | 22.4 µM (inactive) | 17.5 µM (inactive) | 11.8 µM (inactive) | 7.67 µM (inactive) | 10.5 µM (inactive) | 4.34 µM (inactive) | 2.42 µM (inactive) | 14.1 µM (inactive) | 14.8 µM (inactive) | 21.5 µM (inactive) | 13.2 µM (inactive) | – | –
CCCC/C=C1\CCC(CN2CCCCC2)C1=O (configuration not stated) | 24.9 µM (inactive) | 1.7 µM (inactive) | 29.3 µM (inactive) | 4.2 µM (inactive) | > 42.1 µM (inactive) | 7.82 µM (inactive) | 10.9 µM (inactive) | 19.1 µM (inactive) | 30.5 µM (inactive) | 10.1 µM (inactive) | 11.4 µM (inactive) | 29.2 µM (inactive) | 7.91 µM (inactive) | 8.38 µM (inactive) | 26.5 µM (inactive) | 2.3 µM (inactive) | 33 µM (inactive) | 26.6 µM (inactive) | > 100 µM (inactive) | > 100 µM (inactive)
COC12C=C(C)C(CC1)CC2C(=O)O (configuration not stated) | > 100 µM (inactive) | > 100 µM (inactive) | > 100 µM (inactive) | > 100 µM (inactive) | > 100 µM (inactive) | > 100 µM (inactive) | > 100 µM (inactive) | > 100 µM (inactive) | > 100 µM (inactive) | > 100 µM (inactive) | > 100 µM (inactive) | > 100 µM (inactive) | > 100 µM (inactive) | > 100 µM (inactive) | > 100 µM (inactive) | > 100 µM (inactive) | > 100 µM (inactive) | > 100 µM (inactive) | – | –
CC[C@@H](C)[C@@H]1NC(=O)C(C(C)=O)=C1O | 34.2 µM (inactive) | 20.7 µM (inactive) | 16.5 µM (inactive) | 23.3 µM (inactive) | 23.2 µM (inactive) | 24 µM (inactive) | 32.1 µM (inactive) | 25.6 µM (inactive) | 27.1 µM (inactive) | 17.1 µM (inactive) | 12.5 µM (inactive) | 18.8 µM (inactive) | 24.2 µM (inactive) | 11.4 µM (inactive) | 31.7 µM (inactive) | 80.9 µM (inactive) | 18.3 µM (inactive) | 15.6 µM (inactive) | – | –
C=C1C(=O)OC2C[C@H](C)C3CC(=O)C(C)=C3CC12 (some centres not stated) | 13.1 µM (inactive) | 10.6 µM (inactive) | 12.1 µM (inactive) | 16 µM (inactive) | > 57 µM (inactive) | 4.47 µM (inactive) | 12.5 µM (inactive) | 15.4 µM (inactive) | 14.2 µM (inactive) | 12.4 µM (inactive) | 11.8 µM (inactive) | 12.4 µM (inactive) | 4.81 µM (inactive) | 6.92 µM (inactive) | 2.94 µM (inactive) | 16.5 µM (inactive) | 23.4 µM (inactive) | 15.5 µM (inactive) | – | –
CCCCCC/C=C1\CCC(CN2CCOCC2)C1=O (configuration not stated) | 15.1 µM (inactive) | 3.3 µM (inactive) | 17.4 µM (inactive) | 21.8 µM (inactive) | 35.8 µM (inactive) | 3.07 µM (inactive) | 17.7 µM (inactive) | 19 µM (inactive) | 20.4 µM (inactive) | 14.6 µM (inactive) | 16.8 µM (inactive) | 15.5 µM (inactive) | 8.2 µM (inactive) | 5.26 µM (inactive) | 16 µM (inactive) | 16.1 µM (inactive) | 18.3 µM (inactive) | 18.1 µM (inactive) | – | –
O=C(NN1C(=O)C(Cl)C1c1c(O)ccc2ccccc12)c1ccccc1O (configuration not stated) | > 100 µM (inactive) | > 100 µM (inactive) | > 100 µM (inactive) | > 100 µM (inactive) | > 100 µM (inactive) | > 100 µM (inactive) | > 100 µM (inactive) | > 100 µM (inactive) | > 100 µM (inactive) | > 100 µM (inactive) | > 100 µM (inactive) | > 100 µM (inactive) | – | > 100 µM (inactive) | > 100 µM (inactive) | > 100 µM (inactive) | – | > 100 µM (inactive) | – | –
Cn1cnc([N+](=O)[O-])c1Sc1nc2ccccc2o1 | 5.86 µM (inactive) | 3.08 µM (inactive) | 11.5 µM (inactive) | 13.1 µM (inactive) | 22.8 µM (inactive) | 2.53 µM (inactive) | 3.44 µM (inactive) | 13.2 µM (inactive) | 4.35 µM (inactive) | 6.35 µM (inactive) | 12.4 µM (inactive) | 12.6 µM (inactive) | 3.72 µM (inactive) | 2.52 µM (inactive) | 15.1 µM (inactive) | 6.44 µM (inactive) | 36.8 µM (inactive) | 13.3 µM (inactive) | – | –
